Results: EP4725957A1, “GROUP OF CYCLIC ALKALINE LIPOPEPTIDE COMPOUNDS, AND PREPARATION METHOD THEREFOR AND USE THEREOF” (Institute of Medicinal Biotechnology, Chinese Academy of …, priority 2023, dated 2024)
≈ marks a conversion by molar mass, not a printed value. Bridge positions count the residues as written; N and C are the ends. Square brackets hold non-standard residues; d marks the D form. Peptide text beside a SMILES is read from it. * marks the point of attachment. Heptanoyl(6-Me) = CC(C)CCCCC(=O)*; Nonanoyl = CCCCCCCCC(=O)*; dDab = NCC[C@@H](N)C(=O)O; Heptanoyl = CCCCCCC(=O)*; Orn = NCCC[C@H](N)C(=O)O; Dab = NCC[C@H](N)C(=O)O; Dap = NC[C@H](N)C(=O)O

Assays:
Assay type in all cases: cell-based
[1] = test system: Pseudomonas aeruginosa ATCC 27853; conditions: ATCC 27853
Summary of the method: (§1)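 Minimal inhibitory concentrations are measured following CLSI microdilution guidance in MH broth. Test concentrations run from 64 down to 0.03 mg/L in doubling steps, with a final bacterial load of (2-4) × 10^5 CFU/mL and 16-20 h incubation at 35-37°C.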

[2] = test system: Acinetobacter baumannii ABA19-1; conditions: ABA19-1
Summary of the method: as §1

[3] = test system: Acinetobacter baumannii NCTC 13304 (OXA-27); conditions: NCTC 13304
Summary of the method: as §1

[4] = test system: Escherichia coli ATCC BAA-2340 (KPC); conditions: ATCC BAA-2340
Summary of the method: as §1

[5] = test system: Klebsiella pneumoniae KPN+19-15; conditions: KPN+19-15
Summary of the method: as §1

[6] = test system: Pseudomonas aeruginosa PAE19-3; conditions: PAE19-3
Summary of the method: as §1

[7] = test system: Escherichia coli ATCC BAA-2523; conditions: ATCC BAA-2523
Summary of the method: as §1

[8] = test system: Klebsiella pneumoniae ATCC BAA-1705 (KPC); conditions: ATCC BAA-1705
Summary of the method: as §1

[9] = Nephrotoxicity assay: in vitro cytotoxicity of HK-2 cells by CCK-8 assay; conditions: human, HK-2 cells (human renal), 72 h incubation with drug-containing medium
Summary of the method: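 HK-2 human renal cells in RPMI-1640 with 10% FBS were exposed to compounds at final 12.5–500 µg/mL for 72 h, then CCK-8 for 3 h and OD450 read. Viability was normalised to drug-free wells; IC50 came from logarithmic regression over three repeats, with polymyxin B as positive drug.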

| SMILES | MIC [1] [µg/mL] | MIC [2] [µg/mL] | MIC [3] [µg/mL] | MIC [4] [µg/mL] | MIC [5] [µg/mL] | MIC [6] [µg/mL] | MIC [7] [µg/mL] | MIC [8] [µg/mL] | IC50 at 72 h [9] [µg/mL] |
| --- | --- | --- | --- | --- | --- | --- | --- | --- | --- |
| CCCCCCCCC(=O)N[C@@H](CN)C(=O)N[C@H](C(=O)N[C@H](CCN)C(=O)N[C@H]1CCNC(=O)[C@H]([C@@H](C)O)NC(=O)[C@H](CCN)NC(=O)[C@H](CCN)NC(=O)[C@H](CC(C)C)NC(=O)[C@@H](Cc2ccccc2)NC(=O)[C@H](CCN)NC1=O)[C@@H](C)O [Compound 95, Nonanoyl-Dap-Thr-D-Dab-ring(4-10)[Dab-Dab-D-Phe-Leu-Dab-Dab-Thr]] (Nonanoyl-[Dap]T[dDab][Dab][Dab][dF]L[Dab][Dab]T; lactam 4-C) | 1 (≈ 0.841 µM) | 0.06 (≈ 0.0504 µM) | 0.06 (≈ 0.0504 µM) | 0.125 (≈ 0.105 µM) | 0.06 (≈ 0.0504 µM) | 1 (≈ 0.841 µM) | 0.125 (≈ 0.105 µM) | 0.06 (≈ 0.0504 µM) | 113 ± 10.3 (≈ 94.8 µM) |
| CCCCCCC(=O)N[C@@H](CCN)C(=O)N[C@H](C(=O)N[C@@H](CCCN)C(=O)N[C@H]1CCNC(=O)[C@H]([C@@H](C)O)NC(=O)[C@H](CCN)NC(=O)[C@H](CCN)NC(=O)[C@H]([C@@H](C)O)NC(=O)[C@@H](Cc2ccccc2)NC(=O)[C@H](CCN)NC1=O)[C@@H](C)O [Compound 29, Heptanoyl-Dab-Thr-Orn-ring(4-10)[Dab-Dab-D-Phe-Thr-Dab-Dab-Thr]] (Heptanoyl-[Dab]T[Orn][Dab][Dab][dF]T[Dab][Dab]T; lactam 4-C) | 0.03 (≈ 0.0255 µM) | 0.125 (≈ 0.106 µM) | 0.06 (≈ 0.051 µM) | 0.03 (≈ 0.0255 µM) | 0.03 (≈ 0.0255 µM) | 0.5 (≈ 0.425 µM) | 0.03 (≈ 0.0255 µM) | 0.03 (≈ 0.0255 µM) | > 500 |
| CC(C)CCCCC(=O)N[C@@H](CN)C(=O)N[C@H](C(=O)N[C@H](CCN)C(=O)N[C@H]1CCNC(=O)[C@H]([C@@H](C)O)NC(=O)[C@H](CCN)NC(=O)[C@H](CCN)NC(=O)[C@H](CC(C)C)NC(=O)[C@@H](Cc2ccccc2)NC(=O)[C@H](CCN)NC1=O)[C@@H](C)O [Compound 92, 6-methylheptanoyl-Dap-Thr-D-Dab-ring(4-10)[Dab-Dab-D-Phe-Leu-Dab-Dab-Thr]] ({Heptanoyl(6-Me)}-[Dap]T[dDab][Dab][Dab][dF]L[Dab][Dab]T; lactam 4-C) | 0.5 (≈ 0.425 µM) | 0.03 (≈ 0.0255 µM) | 0.03 (≈ 0.0255 µM) | 0.03 (≈ 0.0255 µM) | 0.03 (≈ 0.0255 µM) | 0.5 (≈ 0.425 µM) | 0.03 (≈ 0.0255 µM) | 0.03 (≈ 0.0255 µM) | 228 ± 18.7 (≈ 194 µM) |
| CCCCCCC(=O)N[C@@H](CCN)C(=O)N[C@H](C(=O)N[C@H](CO)C(=O)N[C@H]1CCNC(=O)[C@H]([C@@H](C)O)NC(=O)[C@H](CCCN)NC(=O)[C@H](CCN)NC(=O)[C@H]([C@@H](C)O)NC(=O)[C@@H](Cc2ccccc2)NC(=O)[C@H](CCN)NC1=O)[C@@H](C)O [Compound 89, Heptanoyl-Dab-Thr-D-Ser-ring(4-10)[Dab-Dab-D-Phe-Thr-Dab-Orn-Thr]] (Heptanoyl-[Dab]T[dS][Dab][Dab][dF]T[Dab][Orn]T; lactam 4-C) | >64 | 0.06 (≈ 0.0515 µM) | 0.03 (≈ 0.0258 µM) | 0.125 (≈ 0.107 µM) | 0.5 (≈ 0.429 µM) | 64 (≈ 55 µM) | 0.125 (≈ 0.107 µM) | 0.25 (≈ 0.215 µM) | > 500 |
